From patent US10450300B2, “Wnt signaling pathway inhibitors and therapeutic applications thereof” (Suzhou Yunxuan Yiyao Keji Youxian Gongsi, priority 2015, dated 2019) come the findings set out here.

The assay has as its system Wnt pathway. The assay can be described thus: Wnt pathway Super-top flash (STF) reporter gene assay (primary assay). The assay is classed as cell-based. The note with it: HEK293 STF cells co-cultured 1:1 with L Wnt3A cells; 48 h incubation; inhibition of luminescence signaling. How it is done:
The primary assay is based on Wnt pathway Super-top flash (STF) reporter gene assay:
HEK293 STF stable clones (HEK293 cells stably transfected with “Super-Top Flash” TCF-luciferase reporter plasmid) were kept in complete culture medium (DMEM with 4 mM L-Gln, 1.5 g/L sodium bicarbonate and 4.5 g/L glucose containing 6 μg/mL Blasticidin and 10% FBS). L Wnt3A cells (CRL-2647, ATCC) were kept in DMEM (Gibico) containing 10% FBS (Hyclone). HEK293 STF and L Wnt3A cells were harvested when 90% confluence and cell suspension was mixed with a fixed ratio of 1:1 (HEK293 STF: L Wnt3A). 100 μL/well of mixed cells suspension was added to the 96-well-plate with final cell concentration of 12,000 cells/well and then cultured for an additional 24 hours before adding compounds.
Compounds were diluted in DMSO in sequence and then diluted with DMEM medium. 20 μL medium containing compound was added to the cells according to the pre-setting dose. Cell plates were incubated at 37° C. for an additional 48 hours.
50 μL luciferase solution (Bright-Glo, Promega) was added to each well […] the 48 h incubation. The plates were incubated at room temperature for 5 min under gentle shaking. Luminescence signaling was measured with a plate reader (PHERAstar FS, BMG). The IC50 (potency) of compounds was calculated based on the inhibition of luminescence signaling.

Usually IC50 stands for the concentration needed to halve the response being measured. Regarding `Cc1cc(-c2ncc(CNc3ncnc(NCC4CC4)c3F)cc2F)ccn1` [Compound A-81], the 50% inhibitory concentration (IC50) was found to be 625 nM. `N#Cc1cnc2cc(CNc3ncnc(-c4ccc5ncccc5c4)c3F)ccc2c1` [Compound A-71]: the 50% inhibitory concentration (IC50) was found to be 0.29 nM.

As for `Fc1c(NCc2ccc(-c3ccnnc3)cc2)ncnc1-c1ccc2ncccc2c1` [Compound A-67], the 50% inhibitory concentration (IC50) amounted to 10 nM. In the case of `Cc1cc(-c2ccc(CNc3ncnc(N4CCc5c(C#N)cccc5C4)c3F)cc2)ccn1` [Compound A-53] it was 89 nM; in that of `Cc1cc(-c2ccc(CNc3nccc(N4CCc5ncccc5C4)n3)cc2)ccn1` [Compound A-156], 12 nM; in that of `Cc1cc(-c2ncc(CNc3ncnc(-c4ccc5ncccc5c4)c3F)cc2F)ccn1` [Compound A-36], 0.5 nM.

In the case of `Cc1cc(-c2ccc(CNc3ncnc(N4CCc5ncsc5C4)c3F)cc2)ccn1` [Compound A-47], the IC50 stood at 0.94 nM. In the case of `N#Cc1ccc2cc(CNc3ncnc(N4CCc5ncccc5C4)c3F)ccc2c1` [Compound A-44] it was 1 nM; in that of `O=S1(=O)CCN(c2ccc(CNc3ncnc(-c4ccc5ncccc5c4)c3F)cn2)CC1` [Compound A-68], 16 nM.

Turning to `Cc1cc(-c2ncc(CNc3nccc(-c4ccc5ncccc5n4)c3F)cc2F)ccn1` [Compound A-108], the half-maximal inhibitory concentration (IC50) stood at 1 nM. In the case of `Cc1cc(-c2ccc(CNc3ncnc(-c4ccc5nc(C)ccc5c4)c3F)cc2)ccn1` [Compound A-5] it was 2.1 nM; in that of `Cc1cc(-c2ccc(CNc3ncnc(-c4ccc5ccccc5c4)c3F)nc2)ccn1` [Compound A-37], 2.4 nM; in that of `Fc1c(-c2ccc3ncccc3c2)ccnc1NCc1ccc(-c2ccncc2)cc1` [Compound A-104], 0.11 nM.

On to `Cc1cc(-c2ccc(CNc3ncnc(-c4ccc5[nH]ncc5c4)c3F)cc2)ccn1` [Compound A-13], for which the IC50 turned out to be 99 nM. In the case of `Cc1cc(-c2ccc(CNc3ccnc(-c4ccc5ncccc5c4)n3)cc2)ccn1` [Compound A-157] it was 3000 nM; in that of `COc1cc(CNc2nccc(-c3ccc4ncccc4n3)c2F)cnc1-c1ccnc(C)c1` [Compound A-125], 0.06 nM; in that of `c1ccc2cc(-c3cc(NCc4ccc(-c5ccncc5)cc4)ncn3)ccc2c1` [Compound A-146], 68 nM. In the case of `COc1cc(CNc2nsc(-c3ccc4ncccc4c3)n2)cnc1-c1ccnc(C)c1` [Compound A-193] it was 0.07 nM. In the case of `Cc1cc(-c2ccc(CNc3ncnc(N4CCc5ccccc5C4)c3F)cc2)ccn1` [Compound A-22] it was 14 nM; in that of `CSc1nc(NCc2ccc(-c3ccnc(C)c3)cc2)cc(-c2ccc3ccccc3c2)n1` [Compound A-140], 3000 nM; in that of `Cc1cc(-c2ncc(CNc3ncnc(N4CCn5nnnc5C4)c3F)cc2C#N)ccn1` [Compound A-91], 53 nM.

`Cc1cc(-c2ccc(CNc3cc(Cl)nc(N4CCc5ccccc5C4)n3)cc2)ccn1` [Compound A-135]: the half-maximal inhibitory concentration (IC50) was determined as 3000 nM.

For `Fc1c(NCc2ccc3cnccc3c2)ncnc1-c1ccc2ncccc2c1` [Compound A-41], the IC50 came to 55 nM. For the compound `Cc1cc(-c2ncc(CNc3nccc(-c4cnn(C)c4)c3F)cc2C#N)ccn1` [Compound A-128], the 50% inhibitory concentration (IC50) was 1.8 nM. In the case of `Cc1cc(-c2ncc(CNc3nccc(-c4cncc(Cl)c4)c3F)cc2C#N)ccn1` [Compound A-130], the IC50 came out at 0.11 nM. In the case of `Cc1cc(-c2ncc(CNc3ncnc(N4CCn5nncc5C4)c3F)cc2C#N)ccn1` [Compound A-92] it was 10 nM; in that of `Cc1cc(-c2cnc(CNc3ncnc(-c4ccc5ncccc5c4)c3F)cn2)ccn1` [Compound A-63], 2 nM; in that of `Cc1cc(-c2ncc(CNc3ncnc(N4CCc5nccnc5C4)c3F)cc2F)ccn1` [Compound A-90], 1.2 nM. In the case of `Cc1cc(-c2ccc(CNc3ncnc(N4CCc5ccc(F)cc5C4)c3F)cc2)ccn1` [Compound A-23] it was 15 nM; in that of `Cc1cc(-c2ncc(CNc3nccc(-c4ccc5ncccc5c4)c3F)cc2C#N)ccn1` [Compound A-99], 0.11 nM.

Consider `Cc1cc(-c2ccc(CNc3ncnc(-c4ccc5ccccc5c4)c3F)cn2)ccn1` [Compound A-30], for which the 50% inhibitory concentration (IC50) was 23 nM. In the case of `Cc1cc(-c2ccc(C(C)Nc3cc(-c4ccc5ccccc5c4)ncn3)cc2)ccn1` (stereo not shown) [Compound A-147] it was 40 nM; in that of `Cc1cc(-c2ccc(CNc3ncnc(-c4ccc5c(cnn5C)c4)c3F)cc2)ccn1` [Compound A-15], 19 nM; in that of `Cc1cc(-c2ccc(CNc3ncnc(-c4ccc5ncncc5c4)c3F)cc2)ccn1` [Compound A-9], 2.8 nM. In the case of `Cc1cc(-c2ncc(CNc3ncnc(-c4cc5cccnc5cn4)c3F)cc2C#N)ccn1` [Compound A-86] it was 0.34 nM; in that of `Cc1cc(-c2ncc(CNc3ncnc(-c4ccc5ncccc5c4)c3F)cn2)ccn1` [Compound A-60], 0.81 nM. In the case of `Cc1cc(-c2ccc(CNc3cc(N4CCc5ccccc5C4=O)ncn3)cc2)ccn1` [Compound A-145] it was 1130 nM. On to `Cc1cc(-c2ccc(CNc3nccc(-c4ccc5ncncc5c4)n3)cc2)ccn1` [Compound A-159], for which the IC50 was 17 nM. For the compound `Fc1c(NCc2ccc(-n3ccnc3)cc2)ncnc1-c1ccc2ccccc2c1` [Compound A-40], the IC50 is above 1000 nM.

As for `CSc1ncc2c(n1)CCN(c1cc(NCc3ccc(-c4ccnc(C)c4)cc3)ncn1)C2=O` [Compound A-137, 6-(6-(4-(2-methylpyridin-4-yl)benzylamino)pyrimidin-4-yl)-2-(methylthio)-7,8-dihydropyrido[4,3-d]pyrimidin-5(6H)-one], the IC50 is 3000 nM. In the case of `Cc1cc(-c2ccc(CNc3cc(N4CCCC4)nc(N4CCc5ccccc5C4)n3)cc2)ccn1` [Compound A-136] it was 4000 nM; in that of `O=S1(=O)CCN(c2ccc(CNc3nccc(-c4ccc5ncccc5c4)c3F)cn2)CC1` [Compound A-111], 10 nM. In the case of `Cc1cc(-c2ccc(CNc3ncnc(-c4ccc5ccccc5c4)c3F)s2)ccn1` [Compound A-29] it was 577 nM. In the case of `N#Cc1ccc(NCCNc2nsc(-c3ccc4ncccc4c3)n2)nc1` [Compound A-200] it was 25 nM. `Cc1cc(-c2ccc(CNc3ncnc(-c4ccc5[nH]cnc5c4)c3F)cc2)ccn1` [Compound A-10]: the IC50 turned out to be 285 nM. In the case of `Cc1cc(-c2ccc(C(C)Nc3nccc(-c4ccc5ncccc5c4)c3F)cc2)ccn1` (stereo not shown) [Compound A-102] it was 0.54 nM; in that of `Cc1cc(-c2ncc(CNc3ncnc(-c4ccc5ncccc5c4)c3F)cc2C#N)ccn1` [Compound A-57], 0.39 nM. As for `Cc1cc(-c2ccc(CNc3nccc(-c4ccc5ncccc5c4)n3)cn2)ccn1` [Compound A-169], the IC50 was determined as 4.9 nM.

Turning to `CS(=O)(=O)CCNc1ccc(CNc2nccc(-c3ccc4ncccc4c3)n2)cn1` [Compound A-181], the IC50 stood at 350 nM. In the case of `Cc1cc(-c2ccc(CNc3nccc(-c4ccc5ncccc5c4)c3F)cc2)ccn1` [Compound A-97] it was 0.18 nM; in that of `Cc1cc(-c2ncc(CNc3nccc(-c4cc5cccnc5cn4)n3)cc2F)ccn1` [Compound A-184], 1 nM. In the case of `Cc1cc(-c2ncc(CNc3nnc(-c4ccc5ncccc5c4)s3)cc2C#N)ccn1` [Compound A-185] it was 4.3 nM.
